Columns and labels:
Assay in all cases: Test B preemergence/postemergence greenhouse plant response rating 0 to 10
barley = assay type: in vivo, Hordeum vulgare; settings: 0 to 10 scale
Description: (§1) Seeds of barley (Hordeum vulgare), barnyardgrass (Echinochloa crus-galli), bedstraw (Galium aparine), blackgrass (Alopecurus myosuroides), […] (Bromus secalinus), chickweed (Stellaria media), cocklebur (Xanthium pensylvanicum), corn (Zea mays), cotton (Gossypium hirsutum), crabgrass (Digitaria spp.), giant foxtail (Setaria faberii), lambsquarters (Chenopodium album), morningglory (Ipomoea hederacea), rape (Brassica napus), rice (Oryza sativa), sorghum (Sorghum bicolor), soybean (Glycine max), sugar beet (Beta vulgaris), velvetleaf (Abutilon theophrasti), wheat (Triticum aestivum), wild buckwheat (Polygonum convolvulus), and wild oat (Avena fatua) and purple nutsedge. (Cyperus rotundus) tubers were planted and treated preemergence with test chemicals dissolved in a non-phytotoxic solvent. At the same time, these crop and weed species were also treated with postemergence applications of test chemicals. Plants ranged in height from two to eighteen cm (one to four leaf stage) for postemergence treatments. Treated plants and controls were maintained in a greenhouse for twelve to sixteen days, after which all species were compared to controls and visually evaluated. […] A dash (-) response means no test result.

barnyardgrass = assay type: in vivo, Echinochloa crus-galli; settings: 0 to 10 scale
Description: as §1

bedstraw = assay type: in vivo, Galium aparine; settings: 0 to 10 scale
Description: as §1

blackgrass = assay type: in vivo, Alopecurus myosuroides; settings: 0 to 10 scale
Description: as §1

cheatgrass = assay type: in vivo, Bromus secalinus; settings: 0 to 10 scale
Description: as §1

chickweed = assay type: in vivo, Stellaria media; settings: 0 to 10 scale
Description: as §1

cocklebur = assay type: in vivo, Xanthium pensylvanicum; settings: 0 to 10 scale
Description: as §1

corn = assay type: in vivo, Zea mays; settings: 0 to 10 scale
Description: as §1

cotton = assay type: in vivo, Gossypium hirsutum; settings: 0 to 10 scale
Description: as §1

crabgrass = assay type: in vivo, Digitaria spp.; settings: PREEMERGENCE, 0 to 10 scale
Description: as §1

giant foxtail = assay type: in vivo, Setaria faberii; settings: 0 to 10 scale
Description: as §1

lambsquarters = assay type: in vivo, Chenopodium album; settings: 0 to 10 scale
Description: as §1

morningglory = assay type: in vivo, Ipomoea hederacea; settings: 0 to 10 scale
Description: as §1

rape = assay type: in vivo, Brassica napus; settings: 0 to 10 scale
Description: as §1

rice = assay type: in vivo, Oryza sativa; settings: 0 to 10 scale
Description: as §1

sorghum = assay type: in vivo, Sorghum bicolor; settings: 0 to 10 scale
Description: as §1

soybean = assay type: in vivo, Glycine max; settings: 0 to 10 scale
Description: as §1

sugar beet = assay type: in vivo, Beta vulgaris; settings: 0 to 10 scale
Description: as §1

velvetleaf = assay type: in vivo, Abutilon theophrasti; settings: 0 to 10 scale
Description: as §1

wheat = assay type: in vivo, Triticum aestivum; settings: 0 to 10 scale
Description: as §1

wild buckwheat = assay type: in vivo, Polygonum convolvulus; settings: 0 to 10 scale
Description: as §1

wild oat = assay type: in vivo, Avena fatua; settings: 0 to 10 scale
Description: as §1

purple nutsedge = assay type: in vivo, Cyperus rotundus; settings: 0 to 10 scale
Description: as §1

With `CC(=O)c1cc(-c2nn3c(c2Cl)CCCC3)c(F)cc1Cl` [Compound 45] the “Plant response rating, Barley” value (barley; POSTEMERGENCE, Rate 50 g/ha) was 4, the “Plant response rating, Barley” value (barley; POSTEMERGENCE, Rate 200 g/ha) was 3 and the “Plant response rating, Barley” value (barley; PREEMERGENCE, Rate 50 g/ha) was 0. The “Plant response rating, Barley” value (barley; Rate 200 g/ha, PREEMERGENCE) was 2, the “Plant response rating, Barnyardgrass” value (barnyardgrass; POSTEMERGENCE, Rate 50 g/ha) was 3 and the “Plant response rating, Barnyardgrass” value (barnyardgrass; POSTEMERGENCE, Rate 200 g/ha) was 5. For the same molecule, the “Plant response rating, Barnyardgrass” value (barnyardgrass; PREEMERGENCE, Rate 50 g/ha) was 0, the “Plant response rating, Barnyardgrass” value (barnyardgrass; Rate 200 g/ha, PREEMERGENCE) was 5 and the “Plant response rating, Bedstraw” value (bedstraw; POSTEMERGENCE, Rate 50 g/ha) was 8. The “Plant response rating, Bedstraw” value (bedstraw; POSTEMERGENCE, Rate 200 g/ha) was 10, the “Plant response rating, Bedstraw” value (bedstraw; PREEMERGENCE, Rate 50 g/ha) was 2 and the “Plant response rating, Bedstraw” value (bedstraw; Rate 200 g/ha, PREEMERGENCE) was 4. For the same molecule, the “Plant response rating, Blackgrass” value (blackgrass; POSTEMERGENCE, Rate 50 g/ha) was 6, the “Plant response rating, Blackgrass” value (blackgrass; POSTEMERGENCE, Rate 200 g/ha) was 3 and the “Plant response rating, Blackgrass” value (blackgrass; PREEMERGENCE, Rate 50 g/ha) was 2. The “Plant response rating, Blackgrass” value (blackgrass; Rate 200 g/ha, PREEMERGENCE) was 3, the “Plant response rating, Cheatgrass” value (cheatgrass; POSTEMERGENCE, Rate 50 g/ha) was 4 and the “Plant response rating, Cheatgrass” value (cheatgrass; POSTEMERGENCE, Rate 200 g/ha) was 6. The “Plant response rating, Cheatgrass” value (cheatgrass; PREEMERGENCE, Rate 50 g/ha) was 2, the “Plant response rating, Cheatgrass” value (cheatgrass; Rate 200 g/ha, PREEMERGENCE) was 2 and the “Plant response rating, Chickweed” value (chickweed; POSTEMERGENCE, Rate 50 g/ha) was 8. For the same molecule, the “Plant response rating, Chickweed” value (chickweed; POSTEMERGENCE, Rate 200 g/ha) was 7, the “Plant response rating, Chickweed” value (chickweed; PREEMERGENCE, Rate 50 g/ha) was 3 and the “Plant response rating, Chickweed” value (chickweed; Rate 200 g/ha, PREEMERGENCE) was 2. For the same molecule, the “Plant response rating, Cocklebur” value (cocklebur; POSTEMERGENCE, Rate 50 g/ha) was 7, the “Plant response rating, Cocklebur” value (cocklebur; POSTEMERGENCE, Rate 200 g/ha) was 8 and the “Plant response rating, Cocklebur” value (cocklebur; PREEMERGENCE, Rate 50 g/ha) was 0. For the same molecule, the “Plant response rating, Cocklebur” value (cocklebur; Rate 200 g/ha, PREEMERGENCE) was 4, the “Plant response rating, Corn” value (corn; POSTEMERGENCE, Rate 50 g/ha) was 5 and the “Plant response rating, Corn” value (corn; POSTEMERGENCE, Rate 200 g/ha) was 5. For the same molecule, the “Plant response rating, Corn” value (corn; PREEMERGENCE, Rate 50 g/ha) was 0, the “Plant response rating, Corn” value (corn; Rate 200 g/ha, PREEMERGENCE) was 1 and the “Plant response rating, Cotton” value (cotton; POSTEMERGENCE, Rate 50 g/ha) was 10. For the same molecule, the “Plant response rating, Cotton” value (cotton; POSTEMERGENCE, Rate 200 g/ha) was 10, the “Plant response rating, Cotton” value (cotton; PREEMERGENCE, Rate 50 g/ha) was 0 and the “Plant response rating, Cotton” value (cotton; Rate 200 g/ha, PREEMERGENCE) was 0. The “Plant response rating, Crabgrass” value (crabgrass; Rate 50 g/ha) was 0, the “Plant response rating, Crabgrass” value (crabgrass; Rate 200 g/ha) was 6 and the “Plant response rating, Giant foxtail” value (giant foxtail; POSTEMERGENCE, Rate 50 g/ha) was 5. For the same molecule, the “Plant response rating, Giant foxtail” value (giant foxtail; PREEMERGENCE, Rate 50 g/ha) was 2, the “Plant response rating, Giant foxtail” value (giant foxtail; Rate 200 g/ha, POSTEMERGENCE) was 5 and the “Plant response rating, Giant foxtail” value (giant foxtail; Rate 200 g/ha, PREEMERGENCE) was 5. The “Plant response rating, Lambsquarter” value (lambsquarters; POSTEMERGENCE, Rate 50 g/ha) was 10, the “Plant response rating, Lambsquarter” value (lambsquarters; PREEMERGENCE, Rate 50 g/ha) was 10 and the “Plant response rating, Lambsquarter” value (lambsquarters; Rate 200 g/ha, POSTEMERGENCE) was 10. The “Plant response rating, Lambsquarter” value (lambsquarters; Rate 200 g/ha, PREEMERGENCE) was 10, the “Plant response rating, Morningglory” value (morningglory; POSTEMERGENCE, Rate 50 g/ha) was 8 and the “Plant response rating, Morningglory” value (morningglory; PREEMERGENCE, Rate 50 g/ha) was 2. The “Plant response rating, Morningglory” value (morningglory; Rate 200 g/ha, POSTEMERGENCE) was 9, the “Plant response rating, Morningglory” value (morningglory; Rate 200 g/ha, PREEMERGENCE) was 4 and the “Plant response rating, Rape” value (rape; POSTEMERGENCE, Rate 50 g/ha) was 3. For the same molecule, the “Plant response rating, Rape” value (rape; PREEMERGENCE, Rate 50 g/ha) was 2, the “Plant response rating, Rape” value (rape; Rate 200 g/ha, POSTEMERGENCE) was 10 and the “Plant response rating, Rape” value (rape; Rate 200 g/ha, PREEMERGENCE) was 7. The “Plant response rating, Rice” value (rice; POSTEMERGENCE, Rate 50 g/ha) was 6, the “Plant response rating, Rice” value (rice; PREEMERGENCE, Rate 50 g/ha) was 0 and the “Plant response rating, Rice” value (rice; Rate 200 g/ha, POSTEMERGENCE) was 6. The “Plant response rating, Rice” value (rice; Rate 200 g/ha, PREEMERGENCE) was 3, the “Plant response rating, Sorghum” value (sorghum; POSTEMERGENCE, Rate 50 g/ha) was 4 and the “Plant response rating, Sorghum” value (sorghum; PREEMERGENCE, Rate 50 g/ha) was 0. For the same molecule, the “Plant response rating, Sorghum” value (sorghum; Rate 200 g/ha, POSTEMERGENCE) was 5, the “Plant response rating, Sorghum” value (sorghum; Rate 200 g/ha, PREEMERGENCE) was 1 and the “Plant response rating, Soybean” value (soybean; POSTEMERGENCE, Rate 50 g/ha) was 8. The “Plant response rating, Soybean” value (soybean; PREEMERGENCE, Rate 50 g/ha) was 0, the “Plant response rating, Soybean” value (soybean; Rate 200 g/ha, POSTEMERGENCE) was 8 and the “Plant response rating, Soybean” value (soybean; Rate 200 g/ha, PREEMERGENCE) was 2. The “Plant response rating, Sugar beet” value (sugar beet; POSTEMERGENCE, Rate 50 g/ha) was 7, the “Plant response rating, Sugar beet” value (sugar beet; PREEMERGENCE, Rate 50 g/ha) was 7 and the “Plant response rating, Sugar beet” value (sugar beet; Rate 200 g/ha, POSTEMERGENCE) was 10. For the same molecule, the “Plant response rating, Sugar beet” value (sugar beet; Rate 200 g/ha, PREEMERGENCE) was 9, the “Plant response rating, Velvetleaf” value (velvetleaf; POSTEMERGENCE, Rate 50 g/ha) was 9 and the “Plant response rating, Velvetleaf” value (velvetleaf; PREEMERGENCE, Rate 50 g/ha) was 2. The “Plant response rating, Velvetleaf” value (velvetleaf; Rate 200 g/ha, POSTEMERGENCE) was 10, the “Plant response rating, Velvetleaf” value (velvetleaf; Rate 200 g/ha, PREEMERGENCE) was 0 and the “Plant response rating, Wheat” value (wheat; POSTEMERGENCE, Rate 50 g/ha) was 3. The “Plant response rating, Wheat” value (wheat; PREEMERGENCE, Rate 50 g/ha) was 2, the “Plant response rating, Wheat” value (wheat; Rate 200 g/ha, POSTEMERGENCE) was 8 and the “Plant response rating, Wheat” value (wheat; Rate 200 g/ha, PREEMERGENCE) was 5. The “Plant response rating, Wild buckwheat” value (wild buckwheat; POSTEMERGENCE, Rate 50 g/ha) was 10, the “Plant response rating, Wild buckwheat” value (wild buckwheat; PREEMERGENCE, Rate 50 g/ha) was 3 and the “Plant response rating, Wild buckwheat” value (wild buckwheat; Rate 200 g/ha, POSTEMERGENCE) was 10. For the same molecule, the “Plant response rating, Wild buckwheat” value (wild buckwheat; Rate 200 g/ha, PREEMERGENCE) was 10, the “Plant response rating, Wild oat” value (wild oat; POSTEMERGENCE, Rate 50 g/ha) was 2 and the “Plant response rating, Wild oat” value (wild oat; PREEMERGENCE, Rate 50 g/ha) was 2. The “Plant response rating, Wild oat” value (wild oat; Rate 200 g/ha, POSTEMERGENCE) was 3, the “Plant response rating, Nutsedge” value (purple nutsedge; PREEMERGENCE, Rate 50 g/ha) was 0 and the “Plant response rating, Nutsedge” value (purple nutsedge; Rate 200 g/ha, POSTEMERGENCE) was 6. The “Plant response rating, Nutsedge” value (purple nutsedge; Rate 200 g/ha, PREEMERGENCE) was 0.

Reference: US6358885B1, “Substituted phenylheterocyclic herbicides” (Mississippi State University, priority 1992, dated 2002)
